From patent US12398097B2, “WDR5-MYC inhibitors” (Vanderbilt University, priority 2019, dated 2025)

biological target: WDR5 (Homo sapiens, UniProt P61964); experiment: Competition-based fluorescence polarization anisotropy assay; settings: binding to WDR5; displacement of FITC-labeled small molecule probe (analogous to Example J2 or HCH-25) or peptide probe FITC-AHx-SEEEIDVVSV; pH 6.0; Ki converted from IC50
Outline: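 Ki values derive from displacement of either a fluorescent small-molecule probe or a FITC-peptide probe from WDR5, monitored by fluorescence polarization. Assay run at pH 6.0 in 200 mM phosphate with 300 mM NaCl, 0.5 mM TCEP and 0.1% Chaps.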

First: COc1ccc(Br)cc1S(=O)(=O)Nc1cc(Cl)cc(C(=O)N2CC(S(C)(=O)=O)C2)c1O [Example J64, 5-Bromo-N-(5-chloro-2-hydroxy-3-(3-(methylsulfonyl)azetidine-1-carbonyl)phenyl)-2-methoxybenzenesulfonamide]
Second: COc1ccc(Br)cc1S(=O)(=O)Nc1cc(Cl)cc(C(=O)NCC2CCCO2)c1O (centres unmarked) [Example J65, 3-((5-Bromo-2-methoxyphenyl)sulfonamido)-5-chloro-2-hydroxy-N-((tetrahydrofuran-2-yl)methyl)benzamide]
The Ki of the first is 4.1-fold higher: 4.15 µM for the first, 1.02 µM for the second.

Compared with `O=C(O)c1cc(Cl)cc(NS(=O)(=O)c2cc(Br)ccc2O)c1` [Example J66, 3-((5-Bromo-2-hydroxyphenyl)sulfonamido)-5-chlorobenzoic acid], `O=C(Nc1nc[nH]n1)c1cc(Cl)cc(NS(=O)(=O)c2cc(Br)ccc2O)c1` [Example J67, 3-((5-Bromo-2-hydroxyphenyl)sulfonamido)-5-chloro-N-(1H-1,2,4-triazol-3-yl)benzamide] is 9.8-fold lower in Ki: 3.51 µM for the first, 0.36 µM for the second.

Compared with `O=C(O)c1cc(C2CC2)cc(NS(=O)(=O)c2cc(Br)ccc2O)c1O` [Example J68, 3-((5-Bromo-2-hydroxyphenyl)sulfonamido)-5-cyclopropyl-2-hydroxybenzoic acid], `NC(=O)c1cc(C2CC2)cc(NS(=O)(=O)c2cc(Br)ccc2O)c1O` [Example J80, 3-((5-Bromo-2-hydroxyphenyl)sulfonamido)-5-cyclopropyl-2-hydroxybenzamide] is 33-fold higher in Ki: 0.05 µM for the first, 1.64 µM for the second. The first binds more tightly here.

`COc1ccc(Br)cc1S(=O)(=O)Nc1cc(C2CC2)cc(C(=O)O)c1O` [Example J69, 3-((5-Bromo-2-methoxyphenyl)sulfonamido)-5-cyclopropyl-2-hydroxybenzoic acid] and `COc1cc(Cl)c(Br)cc1S(=O)(=O)Nc1cc(C2CC2)cc(C(=O)O)c1O` [Example J71, 3-((5-Bromo-4-chloro-2-methoxyphenyl)sulfonamido)-5-cyclopropyl-2-hydroxybenzoic acid] are within 1.5-fold of each other in Ki: 1.94 µM for the first, 2.72 µM for the second.

First: O=C(O)c1cc(C2CC2)cc(NS(=O)(=O)c2cc(Br)cc(Cl)c2O)c1O [Example J70, 3-((5-Bromo-3-chloro-2-hydroxyphenyl)sulfonamido)-5-cyclopropyl-2-hydroxybenzoic acid]
Second: NC(=O)c1cc(C2CC2)cc(NS(=O)(=O)c2cc(Br)cc(Cl)c2O)c1O [Example J94, 3-((5-Bromo-3-chloro-2-hydroxyphenyl)sulfonamido)-5-cyclopropyl-2-hydroxybenzamide]
The Ki of the first is 3.1-fold lower: 0.13 µM for the first, 0.4 µM for the second.

First: COc1cc(F)c(Br)cc1S(=O)(=O)Nc1cc(C2CC2)cc(C(=O)O)c1O [Example J72, 3-((5-Bromo-4-fluoro-2-methoxyphenyl)sulfonamido)-5-cyclopropyl-2-hydroxybenzoic acid]
Second: COc1cc(Cl)c(Br)cc1S(=O)(=O)Nc1cc(C2CC2)cc(C(N)=O)c1O [Example J105, 3-((5-Bromo-4-chloro-2-methoxyphenyl)sulfonamido)-5-cyclopropyl-2-hydroxybenzamide]
The Ki of the first is 12-fold lower: 1.11 µM for the first, 13 µM for the second. The first binds more tightly here.

`O=C(O)c1cc(C2CC2)cc(NS(=O)(=O)c2cc(Br)ccc2NC2CC2)c1O` [Example J73, 3-((5-Bromo-2-(cyclopropylamino)phenyl)sulfonamido)-5-cyclopropyl-2-hydroxybenzoic acid] and `O=C(O)c1cc(C2CC2)cc(NS(=O)(=O)c2cc(Br)ccc2NCC2CC2)c1O` [Example J79, 3-((5-Bromo-2-((cyclopropylmethyl)amino)phenyl)sulfonamido)-5-cyclopropyl-2-hydroxybenzoic acid] are within 1.5-fold of each other in Ki: 5.98 µM for the first, 5.27 µM for the second.

`CC(C)CNc1ccc(Br)cc1S(=O)(=O)Nc1cc(C2CC2)cc(C(=O)O)c1O` [Example J74, 3-((5-Bromo-2-(isobutylamino)phenyl)sulfonamido)-5-cyclopropyl-2-hydroxybenzoic acid] and `CC(C)[C@@H](C)Nc1ccc(Br)cc1S(=O)(=O)Nc1cc(C2CC2)cc(C(=O)O)c1O` [Example J75, (R)-3-((5-Bromo-2-((3-methylbutan-2-yl)amino)phenyl)sulfonamido)-5-cyclopropyl-2-hydroxybenzoic acid] are within 1.5-fold of each other in Ki: 3.93 µM for the first, 5.17 µM for the second.

`CC(C)[C@H](C)Nc1ccc(Br)cc1S(=O)(=O)Nc1cc(C2CC2)cc(C(=O)O)c1O` [Example J76, (S)-3-((5-Bromo-2-((3-methylbutan-2-yl)amino)phenyl)sulfonamido)-5-cyclopropyl-2-hydroxybenzoic acid] and `C[C@@H](Nc1ccc(Br)cc1S(=O)(=O)Nc1cc(C2CC2)cc(C(=O)O)c1O)C1CC1` [Example J77, (R)-3-((5-Bromo-2-((1-cyclopropylethyl)amino)phenyl)sulfonamido)-5-cyclopropyl-2-hydroxybenzoic acid] are within 1.5-fold of each other in Ki: 3.24 µM for the first, 2.87 µM for the second.

Going from `COC[C@H]1CCCN1c1ccc(Br)cc1S(=O)(=O)Nc1cc(C2CC2)cc(C(=O)O)c1O` [Example J78, (R)-3-((5-Bromo-2-(2-(methoxymethyl)pyrrolidin-1-yl)phenyl)sulfonamido)-5-cyclopropyl-2-hydroxybenzoic acid] to `COCCNC(=O)c1cc(C2CC2)cc(NS(=O)(=O)c2cc(Br)ccc2O)c1O` [Example J86, 3-((5-Bromo-2-hydroxyphenyl)sulfonamido)-5-cyclopropyl-2-hydroxy-N-(2-methoxyethyl)benzamide], the Ki falls from 3.99 µM to 0.56 µM (7.1-fold). The second binds more tightly here.

`CNC(=O)c1cc(C2CC2)cc(NS(=O)(=O)c2cc(Br)ccc2O)c1O` [Example J81, 3-((5-Bromo-2-hydroxyphenyl)sulfonamido)-5-cyclopropyl-2-hydroxy-N-methylbenzamide] and `O=C(NCCO)c1cc(C2CC2)cc(NS(=O)(=O)c2cc(Br)ccc2O)c1O` [Example J87, 3-((5-Bromo-2-hydroxyphenyl)sulfonamido)-5-cyclopropyl-2-hydroxy-N-(2-hydroxyethyl)benzamide] are within 1.5-fold of each other in Ki: 0.75 µM for the first, 0.59 µM for the second.

Going from `CN(CCO)C(=O)c1cc(C2CC2)cc(NS(=O)(=O)c2cc(Br)ccc2O)c1O` [Example J82, 3-((5-Bromo-2-hydroxyphenyl)sulfonamido)-5-cyclopropyl-2-hydroxy-N-(2-hydroxyethyl)-N-methylbenzamide] to `COCCN(C)C(=O)c1cc(C2CC2)cc(NS(=O)(=O)c2cc(Br)ccc2O)c1O` [Example J83, 3-((5-Bromo-2-hydroxyphenyl)sulfonamido)-5-cyclopropyl-2-hydroxy-N-(2-methoxyethyl)-N-methylbenzamide], the Ki rises from 3.76 µM to 6.38 µM (1.7-fold).

`O=C(NCCN1CCOCC1)c1cc(C2CC2)cc(NS(=O)(=O)c2cc(Br)ccc2O)c1O` [Example J84, 3-((5-Bromo-2-hydroxyphenyl)sulfonamido)-5-cyclopropyl-2-hydroxy-N-(2-morpholinoethyl)benzamide] and `O=C(c1cc(C2CC2)cc(NS(=O)(=O)c2cc(Br)ccc2O)c1O)N1CCOCC1` [Example J85, 5-Bromo-N-(5-cyclopropyl-2-hydroxy-3-(morpholine-4-carbonyl)phenyl)-2-hydroxybenzenesulfonamide] are within 1.5-fold of each other in Ki: 1.07 µM for the first, 1.44 µM for the second.

Going from `COCCCNC(=O)c1cc(C2CC2)cc(NS(=O)(=O)c2cc(Br)ccc2O)c1O` [Example J88, 3-((5-Bromo-2-hydroxyphenyl)sulfonamido)-5-cyclopropyl-2-hydroxy-N-(3-methoxypropyl)benzamide] to `O=C(NCCCO)c1cc(C2CC2)cc(NS(=O)(=O)c2cc(Br)ccc2O)c1O` [Example J91, 3-((5-Bromo-2-hydroxyphenyl)sulfonamido)-5-cyclopropyl-2-hydroxy-N-(3-hydroxypropyl)benzamide], the Ki rises from 0.6 µM to 0.94 µM (1.6-fold).

Going from `CN(C)CCNC(=O)c1cc(C2CC2)cc(NS(=O)(=O)c2cc(Br)ccc2O)c1O` [Example J89] to `O=C(NC1COC1)c1cc(C2CC2)cc(NS(=O)(=O)c2cc(Br)ccc2O)c1O` [Example J93, 3-((5-Bromo-2-hydroxyphenyl)sulfonamido)-5-cyclopropyl-2-hydroxy-N-(oxetan-3-yl)benzamide], the Ki falls from 1.31 µM to 0.54 µM (2.4-fold).

Compared with `O=C(NC1CCOC1)c1cc(C2CC2)cc(NS(=O)(=O)c2cc(Br)ccc2O)c1O` (centres unmarked) [Example J90, 3-((5-Bromo-2-hydroxyphenyl)sulfonamido)-5-cyclopropyl-2-hydroxy-N-(tetrahydrofuran-3-yl)benzamide], `O=C(N[C@H]1CCOC1)c1cc(C2CC2)cc(NS(=O)(=O)c2cc(Br)cc(Cl)c2O)c1O` [Example J97, (S)-3-((5-Bromo-3-chloro-2-hydroxyphenyl)sulfonamido)-5-cyclopropyl-2-hydroxy-N-(tetrahydrofuran-3-yl)benzamide] is 5.3-fold lower in Ki: 0.74 µM for the first, 0.14 µM for the second. The second binds more tightly here.

Going from `CN1CCN(C(=O)c2cc(C3CC3)cc(NS(=O)(=O)c3cc(Br)ccc3O)c2O)CC1` [Example J92, 5-Bromo-N-(5-cyclopropyl-2-hydroxy-3-(4-methylpiperazine-1-carbonyl)phenyl)-2-hydroxybenzenesulfonamide] to `CNC(=O)c1cc(C2CC2)cc(NS(=O)(=O)c2cc(Br)cc(Cl)c2O)c1O` [Example J95, 3-((5-Bromo-3-chloro-2-hydroxyphenyl)sulfonamido)-5-cyclopropyl-2-hydroxy-N-methylbenzamide], the Ki falls from 4.44 µM to 0.39 µM (11-fold).

First: COCCNC(=O)c1cc(C2CC2)cc(NS(=O)(=O)c2cc(Br)cc(Cl)c2O)c1O [Example J96, 3-((5-Bromo-3-chloro-2-hydroxyphenyl)sulfonamido)-5-cyclopropyl-2-hydroxy-N-(2-methoxyethyl)benzamide]
Second: COCCNC(=O)c1cc(C2CC2)cc(NS(=O)(=O)c2cc(Br)cc(F)c2O)c1O [Example J99, 3-((5-Bromo-3-fluoro-2-hydroxyphenyl)sulfonamido)-5-cyclopropyl-2-hydroxy-N-(2-methoxyethyl)benzamide]
The Ki of the first is 6.1-fold lower: 0.61 µM for the first, 3.72 µM for the second.

First: CNC(=O)c1cc(C2CC2)cc(NS(=O)(=O)c2cc(Br)cc(F)c2O)c1O [Example J98, 3-((5-Bromo-3-fluoro-2-hydroxyphenyl)sulfonamido)-5-cyclopropyl-2-hydroxy-N-methylbenzamide]
Second: NC(=O)c1cc(C2CC2)cc(NS(=O)(=O)c2cc(Br)cc([N+](=O)[O-])c2O)c1O [Example J104, 3-((5-Bromo-2-hydroxy-3-nitrophenyl)sulfonamido)-5-cyclopropyl-2-hydroxybenzamide]
The Ki of the first is 3.8-fold higher: 2.32 µM for the first, 0.61 µM for the second. The second binds more tightly here.
